From patent publication US20090240048A1, “Alpha-crystalline form of substituted selenoxanthenes and the method of its preparation” (MEDBIOPHARM LTD, priority 2008, published 2009)

Tests used:
[1] = Angle of repose (flowability) of powder; assay type: physicochemical
Storage life = assay type: physicochemical

## c1ccc(C2C3=C(CCCC3)[Se]C3=C2CCCC3)cc1 [9-phenyl-symmetrical-octahydroselenoxanthene]
[1]
  Angle of repose: 52°
Storage life
  Storage life: 6 months
